Test results published in patent publication EP4703361A1, “PYRIDAZINONE TRPC4/5 INHIBITOR AND USE THEREOF” (Shanghai Institute of Materia Medica, Chinese Academy of …, priority 2023, dated 2024).
Values belong to the molecule of their own block, whether it stands above or below them.

What was measured:
[1] = Drug tissue distribution after oral administration to mice; conditions: for Drug concentration Brain / Drug concentration Colon / Drug concentration Heart / Drug concentration Kidney / Drug concentration Liver / Drug concentration Lung / Drug concentration Muscle / Drug concentration Plasma / Drug concentration Spleen: mice, 10 mg/kg oral
Protocol: 250 mg of CMC-Na was weighted accurately, dissolved in 50 mL of mili-Q water, and sonicated for 1 h to prepare a 0.5% (m/v) CMC-Na solution for later use. […] After vortexing to dissolve, 140 µL of Tween 80 was added and mixed by vortex. Then 6.72 mL of CMC-Na solution was added and sonicated for 30 min to obtain 7 mL of a 1.0 mg/mL solution for use.
Mice were able to eat and drink freely and randomly divided into groups, with 3 mice in each group, and each mouse was gavaged with a dosage volume of 10 mL/kg. Blood was collected from the orbital venous plexus 1 and 4 hours after administration. Approximately 500 µL of mouse blood was placed in an EDTA-K2 anticoagulant tube. At the same time points, the brain, heart, lung, liver, kidney, spleen, colon, and muscle tissues of the mice were collected. […] Mouse brain, heart, lung, liver, kidney, spleen, colon, and muscle tissues were ground into tissue homogenate using a grinder with physiological saline equal to 5 times the weight of the tissue. The homogenate was centrifuged at 3,000 rpm for 10 min, and the supernatant was stored at -80°C for later use.
198 µL of plasma sample was placed in a centrifuge tube, 2 µl of internal standard solution was added, then 400 µL of acetonitrile was added, mixed by vortex for 1 min, and centrifuged at 13,000 rpm for 6 min. All the supernatant was taken, evaporated at room temperature for two days, re-dissolved in 200 µL of acetonitrile solvent, filtered with a 0.22 µm filter membrane and then injected for testing. 198 µL of the tissue homogenate supernatant sample was placed in a centrifuge tube, 2 µl of internal standard solution was added, then 400 µL of acetonitrile was added, mixed by vortex for 1 min, and centrifuged at 13,000 rpm for 6 min. All the supernatant was taken, evaporated at room temperature for two days, re-dissolved in 200 µL of acetonitrile solvent, filtered with a 0.22 µm filter membrane and then injected for testing.
Chromatographic column: Ultimate XB-C18 3 µM 2.1*100 mm; flow rate: 0.3 mL/min; column temperature: 30 °C; injection volume: 5 µL; mobile phase: A (pure water, containing 0.1% by volume formic acid), B (acetonitrile). The mass spectrometry ion source was an electrospray ionization (ESI) ionization source with a source temperature of 300°C.

[2] = target: T1, hTRPC5 (Homo sapiens, UniProt Q9UL62); assay: TRPC5 inhibitory activity assay (FLIPR calcium flux, Fluo-4, agonist Englerin A); type: cell-based; conditions: HEK-293 cells expressing hTRPC5; agonist Englerin A 0.3 nM
T1 construct: expressed in transfected cells; host or cells: HEK-293
T1 sequence (Q9UL62 1-973): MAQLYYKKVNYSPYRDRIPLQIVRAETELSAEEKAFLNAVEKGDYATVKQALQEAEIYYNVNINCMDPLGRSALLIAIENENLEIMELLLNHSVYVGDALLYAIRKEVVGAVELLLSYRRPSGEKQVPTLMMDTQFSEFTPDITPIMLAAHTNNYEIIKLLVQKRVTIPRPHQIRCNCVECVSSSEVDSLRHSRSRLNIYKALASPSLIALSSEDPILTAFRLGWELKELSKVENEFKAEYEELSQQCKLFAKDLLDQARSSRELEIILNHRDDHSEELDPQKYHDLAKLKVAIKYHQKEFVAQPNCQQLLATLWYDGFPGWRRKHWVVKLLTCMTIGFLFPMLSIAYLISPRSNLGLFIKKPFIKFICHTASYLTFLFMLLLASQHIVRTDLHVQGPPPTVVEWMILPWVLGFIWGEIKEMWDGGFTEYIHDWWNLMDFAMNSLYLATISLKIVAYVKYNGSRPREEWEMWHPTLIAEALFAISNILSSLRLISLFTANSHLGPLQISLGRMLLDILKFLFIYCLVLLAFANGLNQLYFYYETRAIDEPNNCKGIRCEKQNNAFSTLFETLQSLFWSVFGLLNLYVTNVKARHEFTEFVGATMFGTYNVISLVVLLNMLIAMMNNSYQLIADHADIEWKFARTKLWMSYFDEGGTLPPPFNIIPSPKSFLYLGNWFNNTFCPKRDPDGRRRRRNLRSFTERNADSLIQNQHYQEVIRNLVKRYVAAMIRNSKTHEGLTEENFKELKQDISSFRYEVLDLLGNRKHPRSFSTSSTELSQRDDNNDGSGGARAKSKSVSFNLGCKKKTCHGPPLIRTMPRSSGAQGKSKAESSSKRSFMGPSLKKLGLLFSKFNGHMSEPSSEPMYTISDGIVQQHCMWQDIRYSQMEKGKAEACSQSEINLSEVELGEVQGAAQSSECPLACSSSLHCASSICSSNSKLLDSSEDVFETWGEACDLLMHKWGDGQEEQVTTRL
Protocol: HEK-293 cells expressing hTRPC4 or hTRPC5 were seeded into polylysine (PDL)-coated, black-bottomed, transparent 96-well plates at 2 × 10^4 cells per well. After 8 h of culture, the culture medium was discarded and 60 µL of 4 µM Fluo-4/AM dye was added. The plates were incubated at 37°C for 60 min and then rinsed five times with calcium flux assay buffer. […] After recording for 60 seconds, solvent control, test compound and positive inhibitor were added, and the signal was collected for another 300 seconds. Then, the agonist Englerin A (EA) (MedChemExpress, Shanghai, China, final concentration of 0.3 nM) was added, and the fluorescence signal was collected for another 600 seconds. The fluorescence signal in the trajectory diagram was expressed as F/F0, wherein F was the fluorescence signal at different time points and F0 was the basic fluorescence signal, that is, the average of the fluorescence signals at the first 10 time points. The dose-effect curve is first established with F/F0 = 1 as the baseline. The area under the curve of the fluorescence intensity change after the addition of EA was calculated. The IC50 value was calculated using the log[Inhibitor] vs. response - Variable slope, combining the area under the curve and the log value of the compound concentration.

[3] = Liver microsome stability test (mouse); conditions: for MF %: mouse liver microsomes, metabolic bioavailability; for half-life at 1 µM: mouse, liver microsomes, pH 7.4
Protocol: (§1) 0.1M pH 7.4 Tris buffer was prepared and then this buffer was used to prepare a 100 mM MgCl2 solution and a 10 mM coenzyme factor NADPH solution. The test compound was first prepared as a stock solution in DMSO and then diluted to a working concentration with 0.1% (w/v) BSA-PBS solution as needed.
(§2) During the assay, the liver microsome in TRIS buffer (final concentration of 0.33 mg/mL microsome protein), MgCl2 solution (final concentration of 5 mM), test compound solution (final concentration of 1 µM), and NADPH solution (final concentration of 1 mM) were incubated at 37°C. The reaction was terminated by adding methanol at 0, 7, 17, 30, and 60 minutes. The residual concentration of the test compound was determined using LC/MS/MS.
(§3) Calculation of in vivo clearance: Cl = (Clint × Houston × LW)/(1000); [formula]
(§4) Calculation of hepatic clearance: Clhep = (HBF × fu × Cl)/(HBF + (fu×Cl)); [formula]
(§5) Calculation of Metabolic utilization rate: %MF = 100−(Clhep × 100)/(HBF). [formula]
(§6) ke: Slope of the linear regression line (absolute value of slope) when plotting semi-logarithmic graph. The semi-logarithmic plot was made with the semi-logarithm of the remaining percentage of substrate versus reaction time. P: Microsome protein concentration (mg/mL); Houston: Houston factor (45 mg microsome protein/g liver); LW: Liver weight (g); HBF: Hepatic blood flow (mL/min); fu: Unbound fraction (typically fu=1).

[4] = Liver microsome stability test (human); conditions: for MF %: human liver microsomes, metabolic bioavailability; for half-life at 1 µM: human, liver microsomes, pH 7.4
Protocol: as §1, §2, §3, §4, §5, §6

[5] = in vitro; conditions: human, microsomes, pH 7.4
Protocol: as §1, §2, §3, §4, §5, §6

[6] = in vitro; conditions: mouse, microsomes, pH 7.4
Protocol: as §1, §2, §3, §4, §5, §6

[7] = tested on: DOCA-salt hypertensive nephropathy rats; assay: DOCA-salt-induced hypertensive nephropathy rat model; type: in vivo, SD rats; conditions: oral treatment for 3 weeks, losartan 30 mg/kg once a day
Text: After one week of adaptive feeding, 40 healthy male SD rats (SPF grade, 6 weeks old, weighing 200 g) were randomly divided into cages and fed with normal water. Five rats were selected as the normal group. The other 35 rats were weighed and anesthetized with 6% (w/v) chloral hydrate (200 g/ml, Sinopharm Group Reagent Company) intraperitoneally. The dorsal surgical area was then trimmed and the rats were fixed in a prone position on a surgical board. After strict disinfection, a 2-cm incision was made on the left side of the spine, below the twelfth rib. The muscles were separated, the renal capsule was freed, and the left kidney was exposed. The renal artery and vein were ligated close to the renal hilum, and the left kidney was removed. After clearing congestion, the muscle layer and skin were sutured. After surgery (after waking up from anesthesia), the rats were given an intraperitoneal injection of penicillin sodium (80,000 units intraperitoneal injection, for 3 consecutive days, prepared with normal saline. If 400,000 units of powder were used with 2.5 mL of normal saline, and 0.5 mL was injected per mouse per day). Afterwards, the normal group was given a subcutaneous injection of vegetable oil (commonly corn oil) and fed with tap water; the DOCA-salt modeling group was given a subcutaneous injection of deoxycorticosterone acetate (DOCA, CAS: 56-47-3, Shanghai Aladdin Biochemical Technology) dissolved in vegetable oil once a week, 30 mg/kg each time, and 10 g/L NaCl and 2 g/L KCl were added to the drinking water. The model was established after 4 consecutive weeks of induction.
Four weeks after modeling, the DOCA-salt hypertensive nephropathy rats were divided into four groups according to UACR. The drug was dissolved in 2% (v/v) DMSO + 2% (w/v) Tween 80 + physiological saline system and administered by gavage. […] Normal group: 5 rats, raised normally. Each group had free access to food and water.
After the start of drug administration, rats were placed in metabolic cages to collect 24 hours urine per week. […] Three weeks after administration, serum was collected to check the concentrations of blood creatinine and urea nitrogen. Then, the rats were euthanized under anesthesia, and the renal tissues were obtained. The RNA levels of nephrin and podocin were detected by quantitative RT-PCR.
GraphPad Prism (Ver 6.0) was used for statistical analysis. All data were expressed as mean ± standard error (mean ± SEM). One-way ANOVA was used to analyze the data. Dunnett's multiple test was used to analyze the significance of the differences between the groups. When P < 0.05, the differences between the groups were statistically significant.

[8] = E21 high dose (10 mg/kg morning and evening), Figure 4
[9] = E21 medium dose (5 mg/kg morning and evening), Figure 3

SMILES: COC(c1ccc(F)cc1Cl)c1cnc2n1CCN(c1cn[nH]c(=O)c1Cl)C2 (racemic) [Example E21, 4-chloro-5-(3-((2-chloro-4-fluorophenyl)(methoxy)methyl)-5,6-dihydroimidazo[1,2-a]pyrazin-7(8H)-yl)pyridazin-3(2H)-one]
- drug exposure and distribution in plasma, liver, and kidney ([1]; 1 and 4 hours after oral administration to mice): good
- Drug concentration Brain ([1]; 1 h): 52 ng/g
- Drug concentration Colon ([1]; 1 h): 824 ng/g
- Drug concentration Heart ([1]; 1 h): 191 ng/g
- Drug concentration Kidney ([1]; 1 h): 719 ng/g
- Drug concentration Liver ([1]; 1 h): 565 ng/g
- Drug concentration Lung ([1]; 1 h): 219 ng/g
- Drug concentration Muscle ([1]; 1 h): 153 ng/g
- Drug concentration Plasma ([1]; 1 h): 1147 ng/mL
- Drug concentration Spleen ([1]; 1 h): 531 ng/g
- Drug concentration Brain ([1]; 4 h): 28 ng/g
- Drug concentration Colon ([1]; 4 h): 133 ng/g
- Drug concentration Heart ([1]; 4 h): 26 ng/g
- Drug concentration Kidney ([1]; 4 h): 97 ng/g
- Drug concentration Liver ([1]; 4 h): 205 ng/g
- Drug concentration Lung ([1]; 4 h): 39 ng/g
- Drug concentration Muscle ([1]; 4 h): 52 ng/g
- Drug concentration Plasma ([1]; 4 h): 250 ng/mL
- Drug concentration Spleen ([1]; 4 h): 60 ng/g

- IC50 [2]: 24.6 nM
SMILES: [N-]=[N+]=NC(c1ccc(F)cc1C(F)(F)F)c1cnc2n1CCN(c1cn[nH]c(=O)c1Cl)C2 (stereo not shown) [Example E9, 5-(3-(azido(4-fluoro-2-(trifluoromethyl)phenyl)methyl)-5,6-dihydroimidazo[1,2-a]pyrazin-7(8H)-yl)-4-chloropyridazin-3(2H)-one]

- IC50 [2]: 60.1 nM
SMILES: COC(c1cc(F)ccc1Cl)c1cnc2n1CCN(c1cn[nH]c(=O)c1Cl)C2 (stereo not shown) [Example E22, 4-chloro-5-(3-((2-chloro-5-fluorophenyl)(methoxy)methyl)-5,6-dihydroimidazo[1,2-a]pyrazin-7(8H)-yl)pyridazin-3(2H)-one]

- MF % [3]: 55.9%
- half-life at 1 µM [3]: 0.997 h
- MF % [4]: 63.8%
- half-life at 1 µM [4]: 3.15 h
SMILES: [2H]C([2H])([2H])OC(c1ccc(F)cc1C)c1cnc2n1CCN(c1cn[nH]c(=O)c1Cl)C2 (stereo not shown) [Example E24, 4-chloro-5-(3-((4-fluoro-2-methylphenyl)(methoxy-d3)methyl)-5,6-dihydroimidazo[1,2-a]pyrazin-7(8H)-yl)pyridazin-3(2H)-one]

- IC50 [2]: 5.28 nM
SMILES: C=C(c1cc(F)ccc1Cl)c1cnc2n1CCN(c1cn[nH]c(=O)c1Cl)C2 [Example E27, 4-chloro-5-(3-(1-(2-chloro-5-fluorophenyl)vinyl)-5,6-dihydroimidazo[1,2-a]pyrazin-7(8H)-yl)pyridazin-3(2H)-one]

- IC50 [2]: 18.3 nM
SMILES: CC(c1ccc(F)cc1Cl)c1cnc2n1CCN(c1cn[nH]c(=O)c1Cl)C2 (stereo not shown) [Example E28, 4-chloro-5-(3-(1-(2-chloro-4-fluorophenyl)ethyl)-5,6-dihydroimidazo[1,2-a]pyrazin-7(8H)-yl)pyridazin-3(2H)-one]

- MF % [3]: 54.4%
- half-life at 1 µM [3]: 0.94 h
- MF % [4]: 39.6%
- half-life at 1 µM [4]: 1.17 h
SMILES: CC(c1cc(F)ccc1Cl)c1cnc2n1CCN(c1cn[nH]c(=O)c1Cl)C2 (stereo not shown) [Example E29, 4-chloro-5-(3-(1-(2-chloro-5-fluorophenyl)ethyl)-5,6-dihydroimidazo[1,2-a]pyrazin-7(8H)-yl)pyridazin-3(2H)-one]

SMILES: [N-]=[N+]=NC(c1cc(F)ccc1Cl)c1cnc2n1CCN(c1cn[nH]c(=O)c1Cl)C2 (stereo not shown) [Example E30, 5-(3-(azido(2-chloro-5-fluorophenyl)methyl)-5,6-dihydroimidazo[1,2-a]pyrazin-7(8H)-yl)-4-chloropyridazin-3(2H)-one]
- IC50 [2]: 37.1 nM

- IC50 [2]: 146 nM
SMILES: O=C(c1ccc(F)cc1C(F)(F)F)c1nnc2n1CCN(c1cn[nH]c(=O)c1Cl)C2 [Example E41, 4-chloro-5-(3-(4-fluoro-2-(trifluoromethyl)benzoyl)-5,6-dihydro-[1,2,4]triazolo[4,3-a]pyrazin-7(8H)-yl)pyridazin-3(2H)-one]

SMILES: O=c1[nH]ncc(N2CCn3c(Cc4ccc(F)cc4C(F)(F)F)cnc3C2)c1Cl [Example L002]
- IC50 [2]: 10.4 nM
- half-life at 1 µM [5]: 1.1 h
- half-life at 1 µM [6]: 0.645 h

SMILES: CCCCc1nc(Cl)c(CO)n1Cc1ccc(-c2ccccc2-c2nn[nH]n2)cc1 [losartan]
- levels of nephrin (mRNA, kidney) [7, 8]: effectively increase
- levels of podocin (mRNA, kidney) [7, 8]: effectively increase
- serum creatinine (Scr) [7, 9]: effectively reduce
- urea nitrogen (BUN) [7, 9]: no effect
